Twelve compounds from the supplement of paper PMC10307832 can be followed below.

What all share (assay): relative viability (nuclei count vs DMSO), 5 days (fraction); higher = more cells survive
One assay has as its system CAL-12T. The gist of the method:
(§1)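 Relative viability equals treated-well nuclei counts divided by vehicle-well nuclei counts. Counts came from 4× images of lung cancer cell lines grown in 1536-well plates for 5 days after pin-tool dosing on the day after seeding. Dosing used one drug alone or a fixed anchor-drug dose plus five library-drug doses (not always all listed) in √10 steps, and values are medians of duplicate plates.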

The test system of a further assay is NCI-H1703. The gist of the method: as §1
The subject of another assay is NCI-H1648. The gist of the method: as §1
For the next assay, the system named is A549. The gist of the method: as §1
The subject of a further assay is Calu-6. The gist of the method: as §1
A further assay deals with EBC-1. The gist of the method:
as §1

In a further assay the test system is NCI-H1299. The gist of the method: as §1
In another assay the test system is IA-LM. The gist of the method:
as §1

Take `Clc1ccc(Nc2nnc(Cc3ccncc3)c3ccccc23)cc1` [Vatalanib] + NC(=O)Nc1cc(-c2cccc(F)c2)sc1C(=O)N[C@H]1CCCNC1 [AZD7762] (partner 0.2 µM): the relative viability in the assay on CAL-12T (first compound 0.04 µM) was determined as 0.683; in the assay with CAL-12T (first compound 0.1265 µM), 0.599; in the assay on CAL-12T (first compound 0.4 µM), 0.588; in the assay with CAL-12T (first compound 1.265 µM) it was 0.469; with CAL-12T (first compound 4 µM), 0.574; in the assay on NCI-H1703 (first compound 0.04 µM), 0.128. Moreover, the relative viability was found to be 0.14 with NCI-H1703 (first compound 0.1265 µM); 0.126 in the assay on NCI-H1703 (first compound 0.4 µM); 0.109 in the assay with NCI-H1703 (first compound 4 µM); 0.528 in the assay on NCI-H1648 (first compound 0.04 µM); 0.632 in the assay on NCI-H1648 (first compound 0.1265 µM); 0.665 in the assay with NCI-H1648 (first compound 0.4 µM). Also, the relative viability in the assay with NCI-H1648 (first compound 1.265 µM) was 0.655; in the assay with NCI-H1648 (first compound 4 µM), 0.735.

As to `C[C@@H]1CN(CC(=O)Nc2ccc3c(c2)Cc2cccc(-c4cc(=O)cc(N5CCOCC5)o4)c2S3)C[C@H](C)O1` + Nc1ncn([C@H]2C[C@H](O)[C@@H](CO)O2)c(=O)n1 [Decitabine] (partner 2 µM), the relative viability with A549 (first compound 0.04 µM) amounted to 0.24; with A549 (first compound 0.1265 µM) it was 0.227; with A549 (first compound 0.4 µM), 0.254; in the assay with A549 (first compound 4 µM), 0.31; in the assay on NCI-H1648 (first compound 0.04 µM), 0.41; in the assay on NCI-H1648 (first compound 0.1265 µM) it was 0.515. The relative viability came out at 0.591 in the assay on NCI-H1648 (first compound 0.4 µM) and 0.434 with NCI-H1648 (first compound 4 µM).

With `Clc1ccc(Nc2nnc(Cc3ccncc3)c3ccccc23)cc1` [Vatalanib] + CC(=O)Nc1cccc(-n2c(=O)n(C3CC3)c(=O)c3c(Nc4ccc(I)cc4F)n(C)c(=O)c(C)c32)c1 [Trametinib] (partner 0.02 µM), the relative viability came out at 0.366 with CAL-12T (first compound 0.04 µM); 0.296 in the assay with CAL-12T (first compound 0.1265 µM); 0.368 with CAL-12T (first compound 0.4 µM); 0.366 with CAL-12T (first compound 1.265 µM); 0.298 with CAL-12T (first compound 4 µM); 0.407 in the assay with NCI-H1648 (first compound 0.04 µM). For the same compound, the relative viability with NCI-H1648 (first compound 0.1265 µM) was found to be 0.463; in the assay on NCI-H1648 (first compound 0.4 µM) it was 0.577; in the assay on NCI-H1648 (first compound 1.265 µM), 0.467; in the assay with NCI-H1648 (first compound 4 µM), 0.578.

In the case of `CC(C)Oc1cc(Nc2nc(N[C@@H](C)c3ccc(F)cn3)ncc2Cl)n[nH]1` [AZ23] + CC(C)C[C@H](NC(=O)[C@H](Cc1ccccc1)NC(=O)c1cnccn1)B(O)O [Bortezomib] (partner 0.002 µM), the relative viability was found to be 1.15 in the assay on Calu-6 (first compound 0.03162 µM); 1.04 with Calu-6 (first compound 0.3162 µM); 0.579 in the assay with EBC-1 (first compound 0.01 µM); 0.64 with EBC-1 (first compound 0.03162 µM); 0.493 in the assay on EBC-1 (first compound 0.3162 µM); 1.01 with CAL-12T (first compound 0.03162 µM). Further, the relative viability worked out at 0.876 with CAL-12T (first compound 0.3162 µM); 1.03 with NCI-H1299 (first compound 0.01 µM); 1.02 in the assay with NCI-H1299 (first compound 0.03162 µM); 1.1 in the assay with NCI-H1299 (first compound 0.3162 µM); 0.367 in the assay on NCI-H1703 (first compound 0.03162 µM); 0.363 in the assay on NCI-H1703 (first compound 0.3162 µM). For the same compound, the figures for the relative viability with IA-LM (first compound 0.01 µM), with IA-LM (first compound 0.03162 µM) and with IA-LM (first compound 0.3162 µM) were 1, 0.883 and 0.776, respectively.

As for `COc1cc(N2CCC(C(N)=O)CC2)ccc1Nc1nc(N)c(Cl)c(Nc2ccccc2S(=O)(=O)C(C)C)n1` [HG-5-88-01] + O=C(CCCCCCC(=O)Nc1ccccc1)NO [Vorinostat] (partner 1 µM), the relative viability worked out at 0.747 with CAL-12T (first compound 0.04 µM); 0.89 with CAL-12T (first compound 0.1265 µM); 0.623 in the assay with CAL-12T (first compound 0.4 µM); 0.811 in the assay on CAL-12T (first compound 1.265 µM); 0.49 in the assay on CAL-12T (first compound 4 µM); 0.616 in the assay on NCI-H1648 (first compound 0.04 µM). Further, the relative viability in the assay on NCI-H1648 (first compound 0.1265 µM) stood at 0.307; in the assay on NCI-H1648 (first compound 0.4 µM) it was 0.626; in the assay on NCI-H1648 (first compound 1.265 µM), 0.308; in the assay on NCI-H1648 (first compound 4 µM), 0.301; in the assay with IA-LM (first compound 0.04 µM), 1.03; with IA-LM (first compound 0.1265 µM), 1.01. Also, the relative viability with IA-LM (first compound 0.4 µM) worked out at 0.776; in the assay on IA-LM (first compound 1.265 µM), 0.825; with IA-LM (first compound 4 µM) it was 0.899.

Regarding `Clc1ccc(Nc2nnc(Cc3ccncc3)c3ccccc23)cc1` [Vatalanib] + CC(=O)c1c(C)c2cnc(Nc3ccc(N4CCNCC4)cn3)nc2n(C2CCCC2)c1=O [Palbociclib] (partner 0.5 µM), the relative viability in the assay on CAL-12T (first compound 0.04 µM) was found to be 0.409; with CAL-12T (first compound 0.1265 µM), 0.312; in the assay on CAL-12T (first compound 0.4 µM) it was 0.384; with CAL-12T (first compound 1.265 µM) it was 0.345; in the assay with CAL-12T (first compound 4 µM), 0.425; in the assay with NCI-H1648 (first compound 0.04 µM), 0.268. Besides, the relative viability in the assay with NCI-H1648 (first compound 0.1265 µM) is 0.307; in the assay on NCI-H1648 (first compound 0.4 µM), 0.26; in the assay with NCI-H1648 (first compound 1.265 µM), 0.233; with NCI-H1648 (first compound 4 µM), 0.302.

On to `C[C@@H]1CN(CC(=O)Nc2ccc3c(c2)Cc2cccc(-c4cc(=O)cc(N5CCOCC5)o4)c2S3)C[C@H](C)O1` + CC(=O)c1c(C)c2cnc(Nc3ccc(N4CCNCC4)cn3)nc2n(C2CCCC2)c1=O [Palbociclib] (partner 0.5 µM), for which the relative viability stood at 0.53 in the assay on CAL-12T (first compound 0.04 µM); 0.411 with CAL-12T (first compound 0.1265 µM); 0.44 in the assay on CAL-12T (first compound 0.4 µM); 0.28 in the assay with CAL-12T (first compound 4 µM); 0.265 in the assay on NCI-H1648 (first compound 0.04 µM); 0.322 with NCI-H1648 (first compound 0.1265 µM). Also, the relative viability stood at 0.373 in the assay on NCI-H1648 (first compound 0.4 µM) and 0.26 with NCI-H1648 (first compound 4 µM).

Turning to `Clc1ccc(Nc2nnc(Cc3ccncc3)c3ccccc23)cc1` [Vatalanib] + Nc1ncn([C@H]2C[C@H](O)[C@@H](CO)O2)c(=O)n1 [Decitabine] (partner 2 µM), the relative viability was 0.238 with A549 (first compound 0.04 µM); 0.451 with A549 (first compound 0.1265 µM); 0.313 in the assay with A549 (first compound 0.4 µM); 0.213 with A549 (first compound 1.265 µM); 0.295 with A549 (first compound 4 µM); 0.497 in the assay with NCI-H1648 (first compound 0.04 µM). Also, the relative viability came out at 0.462 in the assay with NCI-H1648 (first compound 0.1265 µM), 0.514 in the assay with NCI-H1648 (first compound 0.4 µM), 0.425 with NCI-H1648 (first compound 1.265 µM) and 0.482 with NCI-H1648 (first compound 4 µM).

As to `C[C@@H]1CN(CC(=O)Nc2ccc3c(c2)Cc2cccc(-c4cc(=O)cc(N5CCOCC5)o4)c2S3)C[C@H](C)O1` + Nc1nc2[nH]cc(CCc3ccc(C(=O)N[C@@H](CCC(=O)O)C(=O)O)cc3)c2c(=O)[nH]1 [Pemetrexed] (partner 0.2 µM), the relative viability turned out to be 1.27 in the assay with CAL-12T (first compound 0.04 µM); 1.21 in the assay on CAL-12T (first compound 0.1265 µM); 1.08 in the assay with CAL-12T (first compound 0.4 µM); 0.428 in the assay with CAL-12T (first compound 4 µM); 0.588 in the assay on NCI-H1648 (first compound 0.04 µM); 0.801 in the assay on NCI-H1648 (first compound 0.1265 µM). In addition, the results for the relative viability with NCI-H1648 (first compound 0.4 µM) and with NCI-H1648 (first compound 4 µM) were 0.747 and 0.64, respectively.

For the compound `COc1cc(N2CCC(C(N)=O)CC2)ccc1Nc1nc(N)c(Cl)c(Nc2ccccc2S(=O)(=O)C(C)C)n1` [HG-5-88-01] + Nc1ncn([C@H]2C[C@H](O)[C@@H](CO)O2)c(=O)n1 [Decitabine] (partner 2 µM), the relative viability in the assay on A549 (first compound 0.04 µM) turned out to be 0.296; with A549 (first compound 0.1265 µM) it was 0.34; in the assay with A549 (first compound 0.4 µM), 0.274; in the assay on A549 (first compound 1.265 µM), 0.246; in the assay with A549 (first compound 4 µM) it was 0.388; with NCI-H1648 (first compound 0.04 µM), 0.5. The relative viability was determined as 0.443 in the assay on NCI-H1648 (first compound 0.1265 µM), 0.457 in the assay with NCI-H1648 (first compound 0.4 µM), 0.359 in the assay with NCI-H1648 (first compound 1.265 µM) and 0.292 in the assay on NCI-H1648 (first compound 4 µM).

With `COc1cc(N2CCC(C(N)=O)CC2)ccc1Nc1nc(N)c(Cl)c(Nc2ccccc2S(=O)(=O)C(C)C)n1` [HG-5-88-01] + CC(=O)c1c(C)c2cnc(Nc3ccc(N4CCNCC4)cn3)nc2n(C2CCCC2)c1=O [Palbociclib] (partner 0.5 µM), the relative viability with CAL-12T (first compound 0.04 µM) came to 0.509; in the assay on CAL-12T (first compound 0.1265 µM), 0.552; in the assay on CAL-12T (first compound 0.4 µM), 0.405; with CAL-12T (first compound 1.265 µM), 0.214; in the assay with CAL-12T (first compound 4 µM) it was 0.211; in the assay with NCI-H1648 (first compound 0.04 µM) it was 0.291. Besides, the relative viability in the assay on NCI-H1648 (first compound 0.1265 µM) is 0.27; in the assay with NCI-H1648 (first compound 0.4 µM) it was 0.321; with NCI-H1648 (first compound 1.265 µM) it was 0.206; in the assay with NCI-H1648 (first compound 4 µM), 0.244.

Take `CC(C)Oc1cc(Nc2nc(N[C@@H](C)c3ccc(F)cn3)ncc2Cl)n[nH]1` [AZ23] + NC(=O)Nc1cc(-c2cccc(F)c2)sc1C(=O)N[C@H]1CCCNC1 [AZD7762] (partner 0.2 µM): the relative viability was found to be 0.614 in the assay with CAL-12T (first compound 0.01 µM); 0.689 with CAL-12T (first compound 0.03162 µM); 0.717 in the assay on CAL-12T (first compound 0.3162 µM); 0.126 in the assay with NCI-H1703 (first compound 0.03162 µM); 0.154 with NCI-H1703 (first compound 0.3162 µM); 0.659 in the assay on NCI-H1648 (first compound 0.01 µM). Besides, the relative viability stood at 0.518 with NCI-H1648 (first compound 0.03162 µM) and 0.762 in the assay on NCI-H1648 (first compound 0.3162 µM).
